Source: PubChem BioAssay AID608 (Sanford-Burnham Center for Chemical Genomics, 2007)
pKd: −log10 of the molar value. Calls of active or inactive are those of the source. How the calls were made is not given here.

Each molecule was assayed against Peptidyl-prolyl cis-trans isomerase FKBP1A (Homo sapiens) (UniProt P62942) (assay: small-molecule binding to FKBP12 – biophysical, NMR detection (AID 608)). Details: purified FKBP12.
Peptidyl-prolyl cis-trans isomerase FKBP1A (Homo sapiens), sequence (P62942 whole entry, looked up): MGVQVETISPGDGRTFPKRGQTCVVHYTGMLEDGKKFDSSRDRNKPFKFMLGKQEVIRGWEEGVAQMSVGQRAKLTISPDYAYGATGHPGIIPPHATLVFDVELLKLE
With `COc1ccc(N2C(=N)C(C)(C)NC2=O)cc1` the Kd was > 4 mM (inactive).
For `COCc1cc(Cl)nc(-c2csc(C)n2)n1`, the Kd was > 4 mM (inactive).
For `Cc1cccc(C)c1N1C(=O)CCC1=O`, the Kd was > 4 mM (inactive).
For `O=C1CSC2=NCCCN12`, the Kd was > 4 mM (inactive).
With `C=C[C@H]1CN2CC[C@H]1C[C@@H]2[C@@H](O)c1ccnc2ccc(OC)cc12` the Kd was > 4 mM (inactive).
In the case of `CCOC(=O)c1snnc1-c1ccccc1`, the Kd was > 4 mM (inactive).
`Nc1n[nH]c(=S)n1-c1ccccc1` was tested, and the Kd was > 4 mM (inactive).
With `CN(C)N1C(=O)c2ccccc2C1=O` the Kd was > 4 mM (inactive).
In the case of `NC1=NC(=O)C(Cc2cccc([N+](=O)[O-])c2)S1` (stereo unspecified), the Kd was > 4 mM (inactive).
With `O=C(Oc1ccc2c(c1)CCC2)N1CCOCC1` the Kd was > 4 mM (inactive).
`Oc1ccc(-n2cncn2)cc1` was tested, and the Kd was > 4 mM (inactive).
For `CC(=O)O[C@@H]1CC2C(C)(C)[C@H](O)CC[C@]2(C)C2CC[C@@]3(C)[C@H](c4ccoc4)OC(=O)C4OC43[C@@]21C` (stereo partly specified), the Kd was > 4 mM (inactive).
With `OCc1cccs1` the Kd was > 4 mM (inactive).
For `NC(CC(=O)O)c1ccccc1` (stereo unspecified), the Kd was > 4 mM (inactive).
`C=C1C2CC[C@H]3[C@]4(C)C[C@H](OC5OC(CO)C(OS(=O)(=O)O)C(OS(=O)(=O)O)C5OC(=O)CC(C)C)C[C@@H](C(=O)O)[C@H]4CC[C@]3(C2)[C@H]1O` (stereo partly specified) was tested, and the Kd was > 4 mM (inactive).
For `C[C@H]1C(=O)O[C@@H]2CCN3CC=C(COC(=O)[C@](C)(O)[C@]1(C)O)[C@H]23`, the Kd was > 4 mM (inactive).
In the case of `CC(=O)N(c1ccccc1)C1C=CS(=O)(=O)C1` (stereo unspecified), the Kd was > 4 mM (inactive).
In the case of `CN1C(=O)N(C)C2NC(=O)NC21` (stereo unspecified), the Kd was > 4 mM (inactive).
With `Cn1cnnc1Sc1ncnc(N)c1[N+](=O)[O-]` the Kd was > 4 mM (inactive).
In the case of `O=c1cccc2n1C[C@H]1CNCC2C1`, the Kd was > 4 mM (inactive).
For `COc1ccc(C2CC(=O)c3ccc(OC)cc3O2)cc1` (stereo unspecified), the Kd was > 4 mM (inactive).
With `Cn1c(SCC(N)=O)nc2ccccc2c1=O` the Kd was > 4 mM (inactive).
For `O=C(Nc1cnccn1)c1cccnc1`, the Kd was > 4 mM (inactive).
In the case of `CN1CCC(NC(=S)NC2CC2)CC1`, the Kd was > 4 mM (inactive).
`CCCC(=O)N1CCSCC1` was tested, and the Kd was > 4 mM (inactive).
In the case of `O=C(O)CC[N+](=O)[O-]`, the Kd was > 4 mM (inactive).
With `Cc1ccc2cc(N)ccc2n1` the Kd was > 4 mM (inactive).
For `CN1C(=O)c2ccc(C(=O)NCc3ccccc3)cc2C1=O`, the Kd was > 4 mM (inactive).
With `COCCn1c(C)cc(O)cc1=O` the Kd was > 4 mM (inactive).
For `CC1Cc2nc(SCC(N)=O)n(C)c(=O)c2S1` (stereo unspecified), the Kd was > 4 mM (inactive).
With `CCC(CCC(C)[C@H]1CCC2C3CC=C4C[C@@H](O)CC[C@]4(C)C3CC[C@@]21C)C(C)C` (stereo partly specified) the Kd was > 4 mM (inactive).
In the case of `O=C(O)CCS(=O)(=O)c1ccccc1`, the Kd was > 4 mM (inactive).
For `O=C1C(=O)N(CNc2ncccn2)c2ccccc21`, the Kd was > 4 mM (inactive).
With `Cc1nnc(SCC(=O)NCc2ccccc2)[nH]c1=O` the Kd was > 4 mM (inactive).
With `CSc1ncc(C(=O)O)n1Cc1ccccc1` the Kd was > 4 mM (inactive).
In the case of `Cn1ccc(NC(=S)Nc2cccc([N+](=O)[O-])c2)n1`, the Kd was > 4 mM (inactive).
For `CC(=O)c1c(C)nn(CC(=O)O)c1C`, the Kd was > 4 mM (inactive).
In the case of `CNC(=O)C1=NCCCc2cc(OC)c(OC)cc21`, the Kd was > 4 mM (inactive).
In the case of `CCSc1nc(N)c(NC(=O)c2ccco2)c(=O)[nH]1`, the Kd was > 4 mM (inactive).
With `Cc1noc(C)c1C(=O)Nc1cccnc1` the Kd was > 4 mM (inactive).
`Nc1nc2ccc(S(N)(=O)=O)cc2s1` was tested, and the Kd was > 4 mM (inactive).
With `Cc1ccc2cccc(SCC(=O)N3CCOCC3)c2n1` the Kd was “inactive”.
In the case of `COc1cccc(C(=O)Nc2c(C)n[nH]c2C)c1`, the Kd was > 4 mM (inactive).
With `S=C(NC1CC1)NN1CCOCC1` the Kd was > 4 mM (inactive).
In the case of `Oc1ccccc1N1CCCC1`, the Kd was > 4 mM (inactive).
With `O=c1c2ccccc2ncn1C1CCCCC1` the Kd was > 4 mM (inactive).
`CC(=O)O[C@@H]1CC2C(C)(C)C(=O)C=C[C@]2(C)C2CC[C@@]3(C)[C@H](c4ccoc4)OC(=O)[C@H]4O[C@]43[C@@]21C` (stereo partly specified) was tested, and the Kd was > 4 mM (inactive).
In the case of `Cc1ccc(Cl)cc1NS(=O)(=O)N1CCOCC1`, the Kd was > 4 mM (inactive).
Molecule `O=C1C2=C(SCCS2)C(=O)N1CCCO` has a pKd of 3.60.
`CC(C)CCn1cnc2c1c(=O)n(C)c(=O)n2C` was tested, and the Kd was > 4 mM (inactive).
`Cc1cc(=O)n2ncn(Cc3ccccc3)c2n1` was tested, and the Kd was > 4 mM (inactive).
In the case of `CN1CCN(c2ccc(CN)cc2)CC1`, the Kd was > 4 mM (inactive).
`O=C1CSC(=Nc2ccc(F)cc2)N1` was tested, and the Kd was > 4 mM (inactive).
In the case of `Cn1cc(Cl)c(C(=O)NC2CCCC2)n1`, the Kd was > 4 mM (inactive).
In the case of `CC(=O)Nc1ccc(C(=O)N2CCOCC2)cc1Cl`, the Kd was > 4 mM (inactive).
For `CC(=O)Nc1ccc(NC(=O)c2ccncc2)cc1`, the Kd was > 4 mM (inactive).
`C[C@@H](N)[C@@H](O)c1ccccc1` was tested, and the Kd was > 4 mM (inactive).
For `CSc1ccc(/C=c2\sc3ncnn3c2=O)cc1`, the Kd was > 4 mM (inactive).
`CC(=O)Nc1ccc2c(c1)C(=O)N(C1CCCCC1)C2=O` was tested, and the Kd was > 4 mM (inactive).
With `COC(=O)C1COCCN1C(=O)CS(=O)(=O)c1ccc(C(C)C)cc1` (stereo unspecified) the Kd was “inactive”.
For `COc1cc(C(=S)N2CCOCC2)ccc1O`, the Kd was > 4 mM (inactive).
`O=S(=O)(Nc1ccc2c(c1)OCCO2)c1cccs1` was tested, and the Kd was > 4 mM (inactive).
`Nc1ccc(C(=O)NCC2CCCO2)cc1` (stereo unspecified) was tested, and the Kd was > 4 mM (inactive).
In the case of `COc1cc(OC)c(-c2c(OC)cc(OC)cc2OC)c(OC)c1`, the Kd was > 4 mM (inactive).
For `NC(=O)c1ccsc1NC(=O)c1cccnc1`, the Kd was > 4 mM (inactive).
`NC(=O)CS(=O)(=O)c1ccc(Cl)cc1` was tested, and the Kd was > 4 mM (inactive).
For `COc1ccc2[nH]cc(CN(C)C)c2c1`, the Kd was > 4 mM (inactive).
`COc1ccccc1Nc1nncc(=O)[nH]1` was tested, and the Kd was > 4 mM (inactive).
`CC(=O)Nc1sccc1C(N)=O` was tested, and the Kd was > 4 mM (inactive).
For `Nc1cccnc1N1CCOCC1`, the Kd was > 4 mM (inactive).
Work on `COc1cccc(NC(=O)c2cccs2)c1` yielded a pKd of 3.36.
`O=C1NCCCC1C(=O)N/N=C/c1ccccc1` (stereo unspecified) was tested, and the Kd was > 4 mM (inactive).
`COc1ccc(-c2coc3cc(O)ccc3c2=O)c(OC)c1` was tested, and the Kd was > 4 mM (inactive).
`CNC(=S)N1CCN(C(=O)c2ccco2)CC1` was tested, and the Kd was > 4 mM (inactive).
`O=C1C2CC=CCC2C(=O)N1c1ccccc1O` (stereo unspecified) was tested, and the Kd was > 4 mM (inactive).
With `Cn1cccc1C(=S)N1CCOCC1` the Kd was > 4 mM (inactive).
With `Cc1cc(=O)oc2cc(O)c(O)cc12` the Kd was > 4 mM (inactive).
With `Cc1nnc(N2CCc3ccccc3C2)[nH]c1=O` the Kd was > 4 mM (inactive).
In the case of `Fc1ccc(NC2=NCCS2)cc1Cl`, the Kd was > 4 mM (inactive).
For `NC(=O)Cn1cnc2c(cnn2-c2ccccc2)c1=O`, the Kd was > 4 mM (inactive).
In the case of `CSc1nc2[nH]ncc2c(=O)[nH]1`, the Kd was > 4 mM (inactive).
For `O=C(NCc1cccs1)c1ccncc1`, the Kd was > 4 mM (inactive).
In the case of `O=C(NC(=S)NN1CCOCC1)c1cccs1`, the Kd was > 4 mM (inactive).
In the case of `O=c1oc2c(O)c(O)cc3c(=O)oc4c(O)c(O)cc1c4c23`, the Kd was > 4 mM (inactive).
With `O=C(O)c1cccnc1-c1nc2ccccc2s1` the Kd was > 4 mM (inactive).
In the case of `Cc1nnc(SCC(=O)N2CCc3ccccc32)s1`, the Kd was > 4 mM (inactive).
For `C=C(C)[C@H]1COc2cc3oc(=O)ccc3cc2O1`, the Kd was > 4 mM (inactive).
For `O=C1c2ccccc2-c2ncnc3cccc1c23`, the Kd was > 4 mM (inactive).
`CC(=O)c1ccc(N2C(=O)C(C(C)C)NC2=S)cc1` (stereo unspecified) was tested, and the Kd was > 4 mM (inactive).
`S=c1nc2c(n[nH]1)[nH]c1ccccc12` was tested, and the Kd was > 4 mM (inactive).
`NCc1c[nH]c2ccccc12` was tested, and the Kd was > 4 mM (inactive).
`COC(=O)CCSCC(=O)Nc1nnc(C)s1` was tested, and the Kd was > 4 mM (inactive).
`O=C(O)c1cc2ccccc2s1` was tested, and the Kd was > 4 mM (inactive).
With `CC(=O)O[C@H]1CC[C@@]2(C)C(C[C@@H](OC(C)=O)[C@@]3(C)C4=CC(=O)O[C@@H](c5ccoc5)[C@]4(C)CCC23)C1(C)C` (stereo partly specified) the Kd was > 4 mM (inactive).
In the case of `CC[C@@]1(O)C[C@H](O)c2c(cc3c(c2O)C(=O)c2c(O)ccc(O)c2C3=O)[C@H]1C(=O)OC`, the Kd was > 4 mM (inactive).
With `Cc1ccc2c(c1)CCCN2C(=O)c1ccncc1` the Kd was > 4 mM (inactive).
With `CCOC(=O)Cn1cnc2c1c(=O)[nH]c(=O)n2C` the Kd was > 4 mM (inactive).
With `O=Cc1c(N2CCOCC2)nc2ccccn2c1=O` the Kd was > 4 mM (inactive).
With `CN(C)c1ccc(NC(=O)CC(C(=O)O)N(C)C)cc1` (stereo unspecified) the Kd was > 4 mM (inactive).
In the case of `CC(=O)C1CC[C@H]2C3CC[C@H]4C[C@H](O)CC[C@]4(C)C3CC[C@]12C` (stereo partly specified), the Kd was > 4 mM (inactive).
In the case of `OC12CC3CC(C1)C1(NCCS1)C(C3)C2` (stereo unspecified), the Kd was > 4 mM (inactive).
`CC(=O)O[C@@H]1C=C[C@@]2(C)C(C[C@@H](OC(C)=O)[C@@]3(C)C4=CC(=O)O[C@@H](c5ccoc5)[C@]4(C)CCC23)C1(C)C` (stereo partly specified) was tested, and the Kd was > 4 mM (inactive).
For `O=C1CCC(=O)N1c1ccc(O)cc1`, the Kd was > 4 mM (inactive).
With `O=C(CC1CCCCC1)N1CCN(c2ccccn2)CC1` the Kd was > 4 mM (inactive).
With `CC(C)(O)CC[C@@H](O)[C@](C)(O)C1CC[C@@]2(O)C3=CC(=O)C4C[C@@H](O)[C@@H](O)C[C@]4(C)C3CC[C@]12C` (stereo partly specified) the Kd was > 4 mM (inactive).
`CC(C)c1ccc(SCC(=O)N2CCOCC2C(=O)OCCCc2cccnc2)cc1` (stereo unspecified) gave a pKd of 5.25.
For `O=C(NC(=S)NC1CCS(=O)(=O)C1)c1ccccc1` (stereo unspecified), the Kd was > 4 mM (inactive).
`C#CCCCCCCCCCCCC(=O)CC(O)COC(C)=O` (stereo unspecified) was tested, and the Kd was > 4 mM (inactive).
With `CC1(C)CC[C@]2(C(=O)O)CC[C@]3(C)C(=CCC4[C@@]5(C)CC[C@@H](O)C(C)(C)C5CC[C@]43C)C2C1` (stereo partly specified) the Kd was > 4 mM (inactive).
`NCc1ccc2c(c1)OCCO2` was tested, and the Kd was > 4 mM (inactive).
In the case of `CCNC(=S)N1CCC(C(N)=O)CC1`, the Kd was > 4 mM (inactive).
For `CN(C)C(=O)CSc1cccc2cccnc12`, the Kd was > 4 mM (inactive).
In the case of `CC(=O)c1ccc2c(c1)OCCO2`, the Kd was > 4 mM (inactive).
With `CCOc1ccc(C)cc1S(=O)(=O)n1ccc(C)n1` the Kd was > 4 mM (inactive).
In the case of `O=c1c2ccccc2[nH]c2ncccc12`, the Kd was > 4 mM (inactive).
`Cc1cc(=O)n2[nH]c(C)cc2n1` was tested, and the Kd was > 4 mM (inactive).
